Molecular target: Rho-associated protein kinase 2 (Homo sapiens, UniProt O75116)
Assay: In Vitro Assay: The effectiveness of compounds of the present invention as ROCK inhibitors can be determined in a 30 μL assay containing 20 mM HEPES, pH 7.5, 20 mM MgCl2, 0.015% Brij-35, 4 mM DTT, 5 μM ATP and 1.5 μM peptide substrate (FITC-AHA-AKRRRLSSLRA-OH) (SEQ ID No. 1). Compounds were dissolved in DMSO so that the final concentration of DMSO was <2%, and the reaction was initiated with Rho kinase variants. After incubation, the reaction was terminated by the addition of EDTA and the phosphorylated and non-phosphorylated peptides separated using a LABCHIP® 3000 Reader (Caliper Life Sciences). […] Compounds were tested in dose-response format, and the inhibition of kinase activity was calculated at each concentration of compound. The inhibition data were fit using a curve-fitting program to determine the IC50; i.e., the concentration of compound required to inhibit 50% of kinase activity.

Rho-associated protein kinase 2, sequence (O75116 whole entry, looked up, change not shown): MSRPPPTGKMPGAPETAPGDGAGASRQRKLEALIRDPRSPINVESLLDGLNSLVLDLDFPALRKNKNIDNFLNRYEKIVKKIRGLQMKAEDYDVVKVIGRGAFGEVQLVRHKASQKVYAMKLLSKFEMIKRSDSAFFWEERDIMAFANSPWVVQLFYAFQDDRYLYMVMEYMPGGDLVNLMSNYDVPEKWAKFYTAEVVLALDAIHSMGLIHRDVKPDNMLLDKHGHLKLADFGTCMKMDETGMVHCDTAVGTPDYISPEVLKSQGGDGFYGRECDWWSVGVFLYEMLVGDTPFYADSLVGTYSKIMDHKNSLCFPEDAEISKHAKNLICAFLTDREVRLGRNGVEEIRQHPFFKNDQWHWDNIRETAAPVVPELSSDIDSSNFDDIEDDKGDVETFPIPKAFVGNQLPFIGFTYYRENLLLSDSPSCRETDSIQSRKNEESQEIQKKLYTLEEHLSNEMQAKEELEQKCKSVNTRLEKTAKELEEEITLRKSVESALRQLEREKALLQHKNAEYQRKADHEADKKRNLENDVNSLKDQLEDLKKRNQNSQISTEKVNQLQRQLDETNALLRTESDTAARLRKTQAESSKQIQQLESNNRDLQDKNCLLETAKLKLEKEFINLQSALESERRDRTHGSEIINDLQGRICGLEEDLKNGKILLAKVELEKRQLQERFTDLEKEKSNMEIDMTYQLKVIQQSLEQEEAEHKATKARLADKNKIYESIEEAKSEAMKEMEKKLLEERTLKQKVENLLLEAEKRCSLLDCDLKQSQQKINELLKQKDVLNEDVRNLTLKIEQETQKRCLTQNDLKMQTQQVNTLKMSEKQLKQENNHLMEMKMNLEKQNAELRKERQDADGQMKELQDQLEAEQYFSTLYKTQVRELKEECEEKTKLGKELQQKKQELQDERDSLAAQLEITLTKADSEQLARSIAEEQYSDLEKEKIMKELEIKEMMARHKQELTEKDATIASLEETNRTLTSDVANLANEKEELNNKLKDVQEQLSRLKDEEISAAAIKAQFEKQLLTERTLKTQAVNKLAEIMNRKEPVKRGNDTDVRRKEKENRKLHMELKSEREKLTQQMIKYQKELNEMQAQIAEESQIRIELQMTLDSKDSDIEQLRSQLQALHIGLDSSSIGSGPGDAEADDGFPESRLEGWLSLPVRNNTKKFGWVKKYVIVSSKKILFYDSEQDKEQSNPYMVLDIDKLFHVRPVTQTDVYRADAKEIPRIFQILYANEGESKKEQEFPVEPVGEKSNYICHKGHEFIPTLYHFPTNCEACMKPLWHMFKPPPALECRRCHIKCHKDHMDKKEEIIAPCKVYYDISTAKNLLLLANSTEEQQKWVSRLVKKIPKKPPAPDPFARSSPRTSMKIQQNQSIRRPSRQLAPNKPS

IC50: 87 nM
Structure (SMILES): Cc1sc(C(=O)Cc2ccc(Oc3ncccc3C(N)=O)cc2)nc1-c1ccccc1
